{"source": "ChEMBL document CHEMBL1641434", "about": "“Topical anti-inflammatory activity of boropinic acid and its natural and semi-synthetic derivatives” (2011)", "assay_type_in_all_cases": "functional", "key": {"Mus musculus [1]": {"system": "Mus musculus", "assay": "Antiinflammatory activity in CD1 mouse assessed as inhibition of croton oil-induced ear edema at 0.3 umol administered topically per cm'2 of ear relative to control"}, "Mus musculus [2]": {"system": "Mus musculus", "assay": "Antiinflammatory activity in CD1 mouse assessed as inhibition of croton oil-induced ear edema at 0.1 umol administered topically per cm'2 of ear relative to control"}, "Mus musculus [3]": {"system": "Mus musculus", "assay": "Antiinflammatory activity in CD1 mouse assessed as inhibition of croton oil-induced ear edema per cm'2 administered topically"}, "Mus musculus [4]": {"system": "Mus musculus", "assay": "Antiinflammatory activity in CD1 mouse assessed as inhibition of croton oil-induced ear edema at 1 umol administered topically per cm'2 of ear relative to control"}}, "data": [{"compound": "CC(C)=CCOc1ccc(/C=C/C(=O)O)cc1F", "values": [{"measurement": "inhibition (INH)", "setting": "Mus musculus [1]", "result": 39, "unit": "%"}]}, {"compound": "CC(C)=CCOc1ccc(/C=C/C(=O)O)cc1Cl", "values": [{"measurement": "inhibition (INH)", "setting": "Mus musculus [1]", "result": 49, "unit": "%"}, {"measurement": "inhibition (INH)", "setting": "Mus musculus [2]", "result": 25, "unit": "%"}, {"measurement": "ID50", "setting": "Mus musculus [3]", "result": 0.26, "unit": "µmol"}, {"measurement": "inhibition (INH)", "setting": "Mus musculus [4]", "result": 91, "unit": "%"}]}, {"compound": "CC(C)=CCOc1ccc(/C=C/C(=O)O)cc1Br", "values": [{"measurement": "inhibition (INH)", "setting": "Mus musculus [1]", "result": 19, "unit": "%"}]}, {"compound": "CC(C)=CCOc1ccc(/C=C/C(=O)O)cc1I", "values": [{"measurement": "inhibition (INH)", "setting": "Mus musculus [1]", "result": 67, "unit": "%"}, {"measurement": "inhibition (INH)", "setting": "Mus musculus [2]", "result": 30, "unit": "%"}, {"measurement": "ID50", "setting": "Mus musculus [3]", "result": 0.2, "unit": "µmol"}, {"measurement": "inhibition (INH)", "setting": "Mus musculus [4]", "result": 88, "unit": "%"}]}, {"compound": "CC(C)=CCOc1ccc(/C=C/C(=O)O)cc1C", "values": [{"measurement": "inhibition (INH)", "setting": "Mus musculus [1]", "result": 23, "unit": "%"}]}, {"compound": "CC(C)=CCOc1ccc(/C=C/C(=O)O)cc1[N+](=O)[O-]", "values": [{"measurement": "inhibition (INH)", "setting": "Mus musculus [1]", "result": 68, "unit": "%"}, {"measurement": "inhibition (INH)", "setting": "Mus musculus [2]", "result": 33, "unit": "%"}, {"measurement": "ID50", "setting": "Mus musculus [3]", "result": 0.18, "unit": "µmol"}, {"measurement": "inhibition (INH)", "setting": "Mus musculus [4]", "result": 91, "unit": "%"}]}, {"compound": "CC(C)=CCOc1ccc(/C=C/C(=O)O)cc1N", "values": [{"measurement": "inhibition (INH)", "setting": "Mus musculus [1]", "result": 43, "unit": "%"}, {"measurement": "inhibition (INH)", "setting": "Mus musculus [2]", "result": 22, "unit": "%"}, {"measurement": "ID50", "setting": "Mus musculus [3]", "result": 0.33, "unit": "µmol"}, {"measurement": "inhibition (INH)", "setting": "Mus musculus [4]", "result": 81, "unit": "%"}]}, {"compound": "CC(C)=CCOc1ccc(/C=C/C(=O)O)cc1", "values": [{"measurement": "inhibition (INH)", "setting": "Mus musculus [1]", "result": 30, "unit": "%"}, {"measurement": "inhibition (INH)", "setting": "Mus musculus [2]", "result": 13, "unit": "%"}, {"measurement": "ID50", "setting": "Mus musculus [3]", "result": 0.5, "unit": "µmol"}, {"measurement": "inhibition (INH)", "setting": "Mus musculus [4]", "result": 67, "unit": "%"}]}, {"compound": "COc1cc(/C=C/C(=O)O)ccc1OCC=C(C)C", "note": "[BOROPINIC ACID]", "values": [{"measurement": "inhibition (INH)", "setting": "Mus musculus [1]", "result": 36, "unit": "%"}, {"measurement": "inhibition (INH)", "setting": "Mus musculus [2]", "result": 12, "unit": "%"}, {"measurement": "ID50", "setting": "Mus musculus [3]", "result": 0.72, "unit": "µmol"}, {"measurement": "inhibition (INH)", "setting": "Mus musculus [4]", "result": 55, "unit": "%"}]}, {"compound": "COc1ccc2c(c1)c(CC(=O)O)c(C)n2C(=O)c1ccc(Cl)cc1", "note": "[INDOMETHACIN]", "values": [{"measurement": "inhibition (INH)", "setting": "Mus musculus [1]", "result": 62, "unit": "%"}, {"measurement": "inhibition (INH)", "setting": "Mus musculus [2]", "result": 26, "unit": "%"}, {"measurement": "ID50", "setting": "Mus musculus [3]", "result": 0.23, "unit": "µmol"}, {"measurement": "inhibition (INH)", "setting": "Mus musculus [4]", "result": 87, "unit": "%"}]}, {"compound": "CC(Cc1ccc(O)c(O)c1)C(C)Cc1ccc(O)c(O)c1", "note": "(stereo not given) [NORDIHYDROGUAIARETIC ACID]", "values": [{"measurement": "inhibition (INH)", "setting": "Mus musculus [1]", "result": 33, "unit": "%"}, {"measurement": "inhibition (INH)", "setting": "Mus musculus [2]", "result": 19, "unit": "%"}, {"measurement": "ID50", "setting": "Mus musculus [3]", "result": 0.54, "unit": "µmol"}, {"measurement": "inhibition (INH)", "setting": "Mus musculus [4]", "result": 65, "unit": "%"}]}]}
